≈ marks a conversion by molar mass, not a printed value. Calls of active or inactive are those of the source. The rule behind the calls is not given here.
Experiments:
[1] = system: Staphylococcus aureus; test: Disruption of membrane integrity in Staphylococcus aureus MTCC-96 assessed as increase in fluorescence intensity at 4 to 8 uM by PI staining based fluorescence analysis; assay type: functional, organism-based; settings: dose 4-8 µM
[2] = system: Staphylococcus aureus; test: Bactericidal activity against Staphylococcus aureus MTCC-96 at 2 times MIC incubated for 2 hrs by time kill assay; assay type: functional, organism-based
[3] = system: A549; test: Cytotoxicity against human A549 cells assessed as reduction in cell viability at 1 to 100 uM incubated for 44 hrs by MTT assay; assay type: toxicity, cell-based; settings: a549, 44 h, dose 1-100 µM
[4] = system: Lipid bilayer; test: (§1) Induction of ionophore activity across EYPC:CHOL (8:2) large unilamellar vesicles assessed as transmembrane cation transport by measuring decrease in fluorescence intensity for HPTS dye preincubated for 3 mins followed by KCl addition and mesured after 7.5 mins by HPTS dye based fluorescence spectrophotometric analysis; settings: time 10.5 min
[5] = system: Staphylococcus aureus; test: Antibacterial activity against Staphylococcus aureus MTCC-96 assessed as reduction in bacterial growth incubated for 14 to 16 hrs in presence of 100 to 400 uM Zn(NO3)2 by microbroth dilution method; assay type: functional, organism-based; settings: time 14-16 hrs
[6] = system: Staphylococcus aureus; test: Antibacterial activity against Staphylococcus aureus MTCC-96 assessed as reduction in bacterial growth incubated for 14 to 16 hrs in presence of 100 to 400 uM CuCl2 by microbroth dilution method; assay type: functional, organism-based; settings: time 14-16 hrs
[7] = system: Staphylococcus aureus; test: Antibacterial activity against Staphylococcus aureus MTCC-96 assessed as resistance development by measuring fold increase in MIC and measured after 30 days in presence of ZnCl2 by microbroth dilution method; assay type: functional, organism-based; settings: time 30.0 day
[8] = system: Staphylococcus aureus; test: Antibacterial activity against Staphylococcus aureus MTCC-96 assessed as resistance development by measuring fold increase in MIC and measured after 30 days by microbroth dilution method; assay type: functional; settings: time 30 day
[9] = system: Cell membrane; test: Induction of cell membrane depolarization in Staphylococcus aureus MTCC-96 assessed as change in fluorescence intensity at 3.13 uM by DiSC3-5 dye based fluorescence method; assay type: subcellular
[10] = system: Staphylococcus aureus; test: Bactericidal activity against Staphylococcus aureus MTCC-96 assessed as reduction in bacterial colony formation at 2 times MIC incubated upto 8 hrs in presence of ZnCl2 by agar-plate method; assay type: functional, organism-based
[11] = system: Staphylococcus aureus; test: Antibacterial activity against Staphylococcus aureus MTCC-96 assessed as reduction in bacterial growth incubated for 14 to 16 hrs in presence of 100 to 400 uM ZnBr2 by microbroth dilution method; assay type: functional, organism-based; settings: time 14-16 hrs
[12] = system: Lipid bilayer; test: as §1, with “CsCl” for “KCl”; settings: time 10.5 min
[13] = system: Lipid bilayer; test: as §1, with “anion” for “cation”, “Zn(NO3)2” for “KCl”; settings: filed as opener; time 10.5 min
[14] = system: Lipid bilayer; test: as §1, with “MnCl2” for “KCl”; settings: time 10.5 min
[15] = system: Lipid bilayer; test: as §1, with “anion” for “cation”, “ZnSO4” for “KCl”; settings: filed as opener; time 10.5 min
[16] = system: Lipid bilayer; test: as §1, with “CaCl2” for “KCl”; settings: time 10.5 min
[17] = system: Staphylococcus aureus; test: Antibacterial activity against Staphylococcus aureus MTCC-96 assessed as reduction in bacterial growth incubated for 14 to 16 hrs in presence of 100 to 400 uM MnCl2 by microbroth dilution method; assay type: functional, organism-based; settings: time 14-16 hrs
[18] = system: Staphylococcus aureus; test: Antibacterial activity against Staphylococcus aureus MTCC-96 assessed as fold reduction in bacterial growth incubated for 14 to 16 hrs in presence of 400 uM ZnCl2 by microbroth dilution method; assay type: functional; settings: time 14-16 hrs
[19] = system: Lipid bilayer; test: as §1, with “RbCl” for “KCl”; settings: time 10.5 min
[20] = system: Lipid bilayer; test: (§2) Induction of ionophore activity across EYPC:CHOL (8:2) large unilamellar vesicles assessed as transmembrane Zn2+ ion transport by measuring decrease in fluorescence intensity for HPTS dye at 10 uM preincubated for 3 mins followed by ZnCl2 addition and mesured after 7.5 mins by HPTS dye based fluorescence spectrophotometric analysis; settings: filed as opener, time 10.5 min
[21] = system: Staphylococcus aureus; test: Antibacterial activity against Staphylococcus aureus MTCC-96 assessed as reduction in bacterial growth incubated for 14 to 16 hrs in presence of 100 to 400 uM CsCl by microbroth dilution method; assay type: functional, organism-based; settings: time 14-16 hrs
[22] = system: Lipid bilayer; test: as §1, with “CuCl2” for “KCl”; settings: filed as opener; time 10.5 min
[23] = system: Escherichia coli; test: Antibacterial activity against Escherichia coli MTCC 1687 assessed as reduction in bacterial growth incubated for 14 to 16 hrs by microbroth dilution method; assay type: functional; settings: time 14-16 hrs
[24] = system: Lipid bilayer; test: as §1, with “anion” for “cation”, “ZnBr2” for “KCl”; settings: filed as opener; time 10.5 min
[25] = system: Staphylococcus aureus; test: Antibacterial activity against Staphylococcus aureus MTCC-96 assessed as reduction in bacterial growth incubated for 14 to 16 hrs in presence of 100 to 400 uM MgCl2 by microbroth dilution method; assay type: functional, organism-based; settings: time 14-16 hrs
[26] = system: Staphylococcus aureus; test: Antibacterial activity against Staphylococcus aureus MTCC-96 assessed as reduction in bacterial growth incubated for 14 to 16 hrs in presence of 100 to 400 uM ZnSO4 by microbroth dilution method; assay type: functional, organism-based; settings: time 14-16 hrs
[27] = system: Lipid bilayer; test: as §1, with “NaCl” for “KCl”; settings: time 10.5 min
[28] = system: Staphylococcus aureus; test: Antibacterial activity against Staphylococcus aureus MTCC-96 assessed as reduction in bacterial growth incubated for 14 to 16 hrs in presence of 400 uM ZnCl2 by microbroth dilution method; assay type: functional; settings: time 14-16 hrs
[29] = system: Staphylococcus aureus; test: Antibacterial activity against gentamicin-and methicillin-resistant Staphylococcus aureus ATCC 33592 assessed as reduction in bacterial growth incubated for 14 to 16 hrs by microbroth dilution method; assay type: functional; settings: time 14-16 hrs
[30] = system: MDA-MB-231; test: Cytotoxicity against human MDA-MB-231 cells assessed as reduction in cell viability at 1 to 100 uM incubated for 44 hrs by MTT assay; assay type: toxicity, cell-based; settings: mda-mb-231, 44 h, dose 1-100 µM
[31] = system: Staphylococcus aureus; test: Disruption of membrane integrity in Staphylococcus aureus MTCC-96 assessed as change in cocci shape in presence of Zn2+ ion by FE-SEM analysis; assay type: functional, organism-based
[32] = system: MCF-10A; test: Cytotoxicity against human MCF-10A cells assessed as reduction in cell viability at 1 to 100 uM incubated for 44 hrs by MTT assay; assay type: toxicity, cell-based; settings: dose 1-100 µM
[33] = system: Staphylococcus aureus; test: Antibacterial activity against Staphylococcus aureus MTCC-96 assessed as reduction in bacterial growth incubated for 14 to 16 hrs in presence of EGTA by microbroth dilution method; assay type: functional; settings: time 14-16 hrs
[34] = system: Staphylococcus aureus; test: Bactericidal activity against Staphylococcus aureus MTCC-96 at 2 times MIC incubated for 2 hrs in presence of ZnCl2 by time kill assay; assay type: functional, organism-based
[35] = system: Staphylococcus aureus; test: Antibacterial activity against Staphylococcus aureus MTCC-96 assessed as reduction in bacterial growth incubated for 14 to 16 hrs by microbroth dilution method; assay type: functional; settings: time 14-16 hrs
[36] = system: MCF7; test: Cytotoxicity against human MCF7 cells assessed as reduction in cell viability at 1 to 100 uM incubated for 44 hrs by MTT assay; assay type: toxicity, cell-based; settings: mcf7, 44 h, dose 1-100 µM
[37] = system: Staphylococcus aureus; test: Antibacterial activity against Staphylococcus aureus MTCC-96 assessed as reduction in bacterial growth incubated for 14 to 16 hrs in presence of 100 to 400 uM CaCl2 by microbroth dilution method; assay type: functional, organism-based; settings: time 14-16 hrs
[38] = system: Lipid bilayer; test: as §2, with “anion” for “Zn2+ ion”; settings: filed as opener, time 10.5 min
[39] = system: Lipid bilayer; test: as §1, with “LiCl” for “KCl”; settings: time 10.5 min
[40] = system: HCT-116; test: Cytotoxicity against human HCT-116 cells assessed as reduction in cell viability at 1 to 100 uM incubated for 44 hrs by MTT assay; assay type: toxicity, cell-based; settings: hct-116, 44 h, dose 1-100 µM
[41] = system: Erythrocyte; test: Hemolytic activity in human Red blood cells assessed as hemolysis rate at 1.6 to 50 uM incubated for 1 to 24 hrs in presence of ZnCl2 by absorbance based analysis; assay type: toxicity, cell-based; settings: dose lower 1.6 µM, time lower 1 hrs, dose upper 50 µM, time upper 24 hrs
[42] = system: Lipid bilayer; test: as §1, with “MgCl2” for “KCl”; settings: time 10.5 min
[43] = system: Staphylococcus aureus; test: In vivo antibacterial activity against Staphylococcus aureus MTCC-96 infected in Balb/c mouse assessed as less dilated hepatic artery at 523.455 microM/Kg, iv for 7 days by hematoxylin and eosin staining based microscopic analysis; assay type: functional, organism-based; settings: time 7.0 day
[44] = system: Staphylococcus aureus; test: In vivo antibacterial activity against Staphylococcus aureus MTCC-96 infected in Balb/c mouse assessed as liver central vein with minimum infiltration at 523.455 microM/Kg, iv for 7 days by hematoxylin and eosin staining based microscopic analysis; assay type: functional, organism-based; settings: time 7.0 day
[45] = system: Staphylococcus aureus; test: In vivo antibacterial activity against Staphylococcus aureus MTCC-96 infected in Balb/c mouse assessed as hepatocyte distribution at 523.455 microM/Kg, iv for 7 days by hematoxylin and eosin staining based microscopic analysis; assay type: functional, organism-based; settings: time 7.0 day
[46] = system: Staphylococcus aureus; test: In vivo antibacterial activity against Staphylococcus aureus MTCC-96 infected in Balb/c mouse assessed as less dilated portal vein in liver at 523.455 microM/Kg, iv for 7 days by hematoxylin and eosin staining based microscopic analysis; assay type: functional, organism-based; settings: time 7.0 day
[47] = system: Staphylococcus aureus; test: In vivo antibacterial activity against Staphylococcus aureus MTCC-96 infected in Balb/c mouse assessed as bacterial load by measuring CFU in liver at 523.455 microM/Kg, iv for 7 days by CFU assay (Rvb= 719 CFU); assay type: functional, organism-based; settings: time 7.0 day

Molecule: FC(F)(F)c1cc(NC(=S)Nc2cccc3cccnc23)cc(C(F)(F)F)c1
- Activity [1]: inactive
- Activity [2]: Active
- Activity [3]: Non-Toxic
- Activity [4]: inactive
- Activity [5]: Active
- Activity [6]: inactive
- Activity [7]: Active
- fold change (FC) [8]: 16
- Activity [9]: inactive
- Activity [10]: Active
- Activity [11]: Active
- Activity [12]: inactive
- Activity [13]: Active
- Activity [14]: inactive
- Activity [15]: Active
- Activity [16]: inactive
- Activity [17]: inactive
- fold change (FC) [18]: 6.65
- Activity [19]: inactive
- Activity [20]: Active
- Activity [21]: inactive
- Activity [22]: Active
- MIC [23]: > 50 µM
- Activity [24]: Active
- Activity [25]: inactive
- Activity [26]: Active
- Activity [27]: inactive
- MIC [28]: 0.47 µM
- MIC [29]: 3.13 µM (≈ 1.3 µg/mL)
- Activity [30]: Non-Toxic
- Activity [31]: inactive
- Activity [32]: Non-Toxic
- MIC [33]: 6.25 µM
- Activity [34]: Active
- MIC [35]: 3.13 µM (≈ 1.3 µg/mL)
- Activity [36]: Non-Toxic
- Activity [37]: inactive
- Activity [38]: Active
- Activity [39]: inactive
- Activity [40]: Non-Toxic
- Activity [41]: Non-Toxic
- Activity [42]: inactive

Molecule: GENTAMICIN
- Activity [43]: Active
- Activity [44]: Active
- Activity [45]: Active
- Activity [46]: Active
- Activity [47]: 62 CFU

— ChEMBL document CHEMBL5360614, “Quinoline Thiourea-Based Zinc Ionophores with Antibacterial Activity” (J Med Chem, 2023)
